pIC50: −log10 of the molar value.
How the values were obtained:
[1] = molecular target: RAC-alpha serine/threonine-protein kinase (Homo sapiens, UniProt P31749); assay: (§1) Kinase Assay: For the assay 50 nl of a 100 fold concentrated solution of the test compound in DMSO was pipetted into a black low volume 384 well microtiter plate (Greiner Bio-One, Frickenhausen, Germany), 2 μl of a solution of Akt1 in assay buffer [50 mM TRIS/HCl pH 7.5, 5 mM MgCl2, 1 mM dithiothreitol, 0.02% (v/v) Triton X-100 (Sigma)] were added and the mixture was incubated for 15 min at 22° C. to allow pre-binding of the test compounds to the enzyme before the start of the kinase reaction. Then the kinase reaction was started by the addition of 3 μl of a solution of adenosine-tri-phosphate (ATP, 16.7 μM=>final conc. in the 5 μl assay volume is 10 μM) and substrate (1.67 μM=>final conc. in the 5 μl assay volume is 1 μM) in assay buffer and the resulting mixture was incubated for a reaction time of 60 min at 22° C. The concentration of Akt1 in the assay was adjusted depending of the activity of the enzyme lot and was chosen appropriate to have the assay in the linear range, typical enzyme concentrations were in the range of about 0.05 ng/μl (final conc. in the 5 μl assay volume). The reaction was stopped by the addition of 5 μl of a solution of HTRF detection reagents (200 nM streptavidine-XL665 [Cisbio] and 1.5 nM anti-phosho-Serine antibody [Millipore, cat. #35-001] and 0.75 nM LANCE Eu-W 1024 labeled anti-mouse IgG antibody [Perkin Elmer]) in an aqueous EDTA-solution (100 mM EDTA, 0.1% (w/v) bovine serum albumin in 50 mM HEPES/NaOH pH 7.5). The resulting mixture was incubated 1 h at 22° C. to allow the binding of the biotinylated phosphorylated peptide to the streptavidine-XL665 and the antibodies. Subsequently the amount of phosphorylated substrate was evaluated by measurement of the resonance energy transfer from the anti-mouse-IgG-Eu-Chelate to the streptavidine-XL665. Therefore, the fluorescence emissions at 620 nm and 665 nm after excitation at 350 nm was measured in a HTRF reader, e.g. a Rubystar (BMG Labtechnologies, Offenburg, Germany) or a Viewlux (Perkin-Elmer).
[2] = molecular target: RAC-beta serine/threonine-protein kinase (Homo sapiens, UniProt P31751); assay: as §1, with “Assay: His-tagged human recombinant kinase full-length Akt2 expressed in insect cells and activated by PDK1 was purchased form Invitrogen (part number PV 3975). As substrate for the kinase reaction the biotinylated peptide biotin-Ahx-[…] (C-terminus in amide form) was used which can be purchased e.g. from the company Biosynthan GmbH (Berlin-Buch, Germany).” for “Assay:”, “Akt2” for “Akt1”, “0.2” for “0.05”, “antibodies.” for “antibodies. Subsequently the amount of phosphorylated substrate was evaluated by measurement of the resonance energy transfer from the anti-mouse-IgG-Eu-Chelate to the streptavidine-XL665. Therefore, the fluorescence emissions at 620 nm and 665 nm after excitation at 350 nm was measured in a HTRF reader, e.g. a Rubystar (BMG Labtechnologies, Offenburg, Germany) or a Viewlux (Perkin-Elmer).”
RAC-beta serine/threonine-protein kinase, sequence (P31751 whole entry): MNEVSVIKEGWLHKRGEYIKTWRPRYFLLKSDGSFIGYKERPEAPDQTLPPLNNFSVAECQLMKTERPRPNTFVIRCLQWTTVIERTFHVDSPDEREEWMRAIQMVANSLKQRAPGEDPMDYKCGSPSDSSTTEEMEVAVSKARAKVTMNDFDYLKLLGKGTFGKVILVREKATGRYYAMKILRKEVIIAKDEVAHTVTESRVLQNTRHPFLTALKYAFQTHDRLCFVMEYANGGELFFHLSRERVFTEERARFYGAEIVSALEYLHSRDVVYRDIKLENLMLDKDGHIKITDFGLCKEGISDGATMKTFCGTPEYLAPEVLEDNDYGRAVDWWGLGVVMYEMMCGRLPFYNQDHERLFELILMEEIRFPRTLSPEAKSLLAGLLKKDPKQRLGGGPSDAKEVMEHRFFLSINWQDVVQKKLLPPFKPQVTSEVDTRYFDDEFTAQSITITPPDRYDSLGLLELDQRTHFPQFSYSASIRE

RAC-alpha serine/threonine-protein kinase, sequence (P31749 whole entry): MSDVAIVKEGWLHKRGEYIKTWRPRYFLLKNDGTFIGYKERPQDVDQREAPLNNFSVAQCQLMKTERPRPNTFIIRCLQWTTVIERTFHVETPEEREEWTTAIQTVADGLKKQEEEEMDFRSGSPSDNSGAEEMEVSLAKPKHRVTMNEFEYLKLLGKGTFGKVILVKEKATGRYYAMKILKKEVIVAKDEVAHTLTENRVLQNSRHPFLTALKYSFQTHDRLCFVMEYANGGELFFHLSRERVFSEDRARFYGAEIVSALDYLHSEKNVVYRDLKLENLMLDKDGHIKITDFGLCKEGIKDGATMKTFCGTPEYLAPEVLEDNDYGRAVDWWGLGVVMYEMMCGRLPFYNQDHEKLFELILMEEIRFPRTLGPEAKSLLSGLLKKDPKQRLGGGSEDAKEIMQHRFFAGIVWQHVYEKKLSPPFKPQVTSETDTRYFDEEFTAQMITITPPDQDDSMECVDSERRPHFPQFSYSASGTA

| pIC50 [1] | pIC50 [2] | SMILES |
| --- | --- | --- |
| 6.92 | 7.15 | NC1(c2ccc(-c3nc4ccc(C(F)(F)F)nn4c3-c3ccccc3)cc2)CCC1 |
| 7.19 | 6.96 | NC(=O)c1ccnn2c(-c3ccccc3)c(-c3ccc(C4(N)CCC4)cc3)nc12 |
| 7.35 | 7.25 | CCOc1nn2c(-c3ccccc3)c(-c3ccc(C4(N)CCC4)cc3)nc2c(C)c1C |

— ChEMBL document CHEMBL5726044, “Imidazopyridazines as Akt kinase inhibitors” (2017)
